Data on 31 molecules can be found in patent publication US10758534B2 (Vertex Pharmaceuticals Incorporated, priority 2014, dated 2020).

Where only a bound is given, the exact number is not on record here.

T1 sequence (P13569 with tags, fused parts or gaps DEL508-508): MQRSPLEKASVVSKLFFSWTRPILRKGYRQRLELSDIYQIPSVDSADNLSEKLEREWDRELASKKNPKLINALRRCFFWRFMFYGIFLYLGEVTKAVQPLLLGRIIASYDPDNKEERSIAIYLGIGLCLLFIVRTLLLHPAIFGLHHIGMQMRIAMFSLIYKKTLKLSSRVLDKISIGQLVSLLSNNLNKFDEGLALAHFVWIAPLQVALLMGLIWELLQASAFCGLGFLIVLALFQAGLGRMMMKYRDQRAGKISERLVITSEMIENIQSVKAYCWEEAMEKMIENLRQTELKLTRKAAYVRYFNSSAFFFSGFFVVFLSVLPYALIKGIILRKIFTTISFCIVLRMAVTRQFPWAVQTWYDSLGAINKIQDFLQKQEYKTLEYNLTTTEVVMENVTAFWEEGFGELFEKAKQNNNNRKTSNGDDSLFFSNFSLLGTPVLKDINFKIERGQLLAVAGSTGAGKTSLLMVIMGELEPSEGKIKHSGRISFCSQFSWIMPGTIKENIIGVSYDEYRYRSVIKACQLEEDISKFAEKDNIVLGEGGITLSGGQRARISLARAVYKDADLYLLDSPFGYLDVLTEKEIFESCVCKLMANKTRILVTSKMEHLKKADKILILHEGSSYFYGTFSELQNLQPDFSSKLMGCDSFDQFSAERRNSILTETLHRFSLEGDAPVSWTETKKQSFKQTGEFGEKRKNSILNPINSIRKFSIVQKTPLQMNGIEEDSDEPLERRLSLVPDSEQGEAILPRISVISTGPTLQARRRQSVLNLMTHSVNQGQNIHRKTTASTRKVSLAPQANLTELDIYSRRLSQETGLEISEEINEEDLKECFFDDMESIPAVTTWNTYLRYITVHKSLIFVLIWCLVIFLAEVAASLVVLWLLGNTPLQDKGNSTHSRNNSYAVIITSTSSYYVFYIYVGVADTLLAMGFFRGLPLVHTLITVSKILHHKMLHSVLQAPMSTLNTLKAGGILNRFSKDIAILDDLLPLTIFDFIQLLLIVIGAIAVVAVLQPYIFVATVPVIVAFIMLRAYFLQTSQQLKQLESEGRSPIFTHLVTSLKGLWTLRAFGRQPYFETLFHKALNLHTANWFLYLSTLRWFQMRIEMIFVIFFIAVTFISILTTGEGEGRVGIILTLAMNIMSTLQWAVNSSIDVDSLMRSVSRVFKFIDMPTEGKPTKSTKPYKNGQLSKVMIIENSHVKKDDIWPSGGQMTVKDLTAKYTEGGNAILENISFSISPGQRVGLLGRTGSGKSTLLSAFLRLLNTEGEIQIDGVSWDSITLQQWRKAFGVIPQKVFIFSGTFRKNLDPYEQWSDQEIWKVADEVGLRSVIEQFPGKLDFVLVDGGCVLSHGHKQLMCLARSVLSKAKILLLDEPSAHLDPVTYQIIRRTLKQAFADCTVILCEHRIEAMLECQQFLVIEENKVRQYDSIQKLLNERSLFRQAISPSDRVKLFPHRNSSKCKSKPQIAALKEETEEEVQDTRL

The first assay concerns the target T1, F508del (Homo sapiens, UniProt P13569, DEL508-508).
T1 construct: expressed in transfected cells
Kind of assay: Protocol 2: FRET membrane potential optical assay (VIPR), identification of correction compounds. It counts as cell-based. To be noted: F508del CFTR modulator activity; compounds of Table 1; read-out: EC30. The method in brief:
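Corrector readout: membrane-potential FRET (CC2-DMPE donor, DiSBAC2(3) acceptor) on VIPR II after Cl⁻-free gluconate bath with 10 μM forskolin and 20 μM genistein. Before this, F508del-expressing NIH3T3 cells were exposed to test compound for 16 h at 37 °C without serum; 27 °C incubation served as temperature-correction control.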
In the case of `Cc1c(F)cccc1-c1ccc(C(=O)NS(=O)(=O)c2ccc[nH]c2=O)c(N2C[C@@H](C)CC2(C)C)n1` [Compound 2491, 6-(3-fluoro-2-methyl-phenyl)-N-[(2-oxo-1H-pyridin-3-yl)sulfonyl]-2-[(4S)-2,2,4-trimethylpyrrolidin-1-yl]pyridine-3-carboxamide], the 30% effect concentration (EC30) was below 3000 nM.
With `COc1cc(-c2ccc(C(=O)NS(=O)(=O)c3ccc[nH]c3=O)c(N3C[C@@H](C)CC3(C)C)n2)ccc1C` [Compound 2440, 6-(3-methoxy-4-methyl-phenyl)-N-[(2-oxo-1H-pyridin-3-yl)sulfonyl]-2-[(4S)-2,2,4-trimethylpyrrolidin-1-yl]pyridine-3-carboxamide], the EC30 is below 3000 nM.
With `CCOc1cccc(F)c1-c1ccc(C(=O)NS(=O)(=O)c2cccnc2N)c(N2C[C@@H](C)CC2(C)C)n1` [Compound 2103, N-[(2-amino-3-pyridyl)sulfonyl]-6-(2-ethoxy-6-fluoro-phenyl)-2-[(4S)-2,2,4-trimethylpyrrolidin-1-yl]pyridine-3-carboxamide], the EC30 is below 3000 nM.
`CC(C)Cc1ccc(C(=O)NS(=O)(=O)c2ccccc2)c(N2C[C@@H](C)CC2(C)C)n1` [Compound 2246, N-(benzenesulfonyl)-6-isobutyl-2-[(4S)-2,2,4-trimethylpyrrolidin-1-yl]pyridine-3-carboxamide]: the EC30 was below 3000 nM.
`Cc1cn(-c2ccc(C(=O)NS(=O)(=O)c3cccnc3N)c(N3C[C@@H](C)CC3(C)C)n2)nc1OCC(C)(C)C` [Compound 2694]: the EC30 is below 3000 nM.
As to `C[C@@H]1CN(c2ncccc2C(=O)NS(=O)(=O)N2CC[C@@H](NCc3ccc(OC(C)(C)C)cc3)C2)C(C)(C)C1` [Compound 2693], the EC30 was in the range of 3000 to 10000 nM.
Still for that read-out and setting: the result for `CC1CN(c2ncccc2C(=O)NS(=O)(=O)c2cccc(Nc3cccc(OC(C)C)c3)n2)C(C)(C)C1` (stereo not shown) [Compound 2353, N—[[6-(3-isopropoxyanilino)-2-pyridyl]sulfonyl]-2-(2,2,4-trimethylpyrrolidin-1-yl)pyridine-3-carboxamide] reads below 3000 nM; that for `Cc1cc(F)cc(-c2ccc(C(=O)NS(=O)(=O)c3ccc[nH]c3=O)c(N3C[C@@H](C)CC3(C)C)n2)c1` [Compound 2348, 6-(3-fluoro-5-methyl-phenyl)-N-[(2-oxo-1H-pyridin-3-yl)sulfonyl]-2-[(4S)-2,2,4-trimethylpyrrolidin-1-yl]pyridine-3-carboxamide], below 3000 nM.
Same read-out and setting: the result for `CC1CN(c2ncccc2C(=O)NS(=O)(=O)c2cccc(N(C)Cc3ccccc3Cl)n2)C(C)(C)C1` (stereo not shown) [Compound 2744] reads below 3000 nM.
Turning to `CC(C)Oc1ccc(-c2ccc(C(=O)NS(=O)(=O)N3CC[C@H](N)C3)c(N3C[C@@H](C)CC3(C)C)n2)cc1` [Compound 2120, N-[(3S)-3-aminopyrrolidin-1-yl]sulfonyl-6-(4-isopropoxyphenyl)-2-[(4S)-2,2,4-trimethylpyrrolidin-1-yl]pyridine-3-carboxamide], the EC30 is below 3000 nM.
On the same count and under the same terms, the result for `COC1CCCN(c2cccc(S(=O)(=O)NC(=O)c3cccnc3N3CC(C)CC3(C)C)n2)C1` (stereo not shown) [Compound 2152, N—[[6-(3-methoxy-1-piperidyl)-2-pyridyl]sulfonyl]-2-(2,2,4-trimethylpyrrolidin-1-yl)pyridine-3-carboxamide] reads 3000 to 10000 nM.
Regarding `COc1cc(F)cc(-c2cnc(N3CC(C)CC3(C)C)c(C(=O)NS(=O)(=O)c3cccc(N)n3)c2)c1` (stereo not shown) [Compound 2431, N-[(6-amino-2-pyridyl)sulfonyl]-5-(3-fluoro-5-methoxy-phenyl)-2-(2,2,4-trimethylpyrrolidin-1-yl)pyridine-3-carboxamide], the EC30 is below 3000 nM.
Consider `COc1ccc(Oc2cccc(S(=O)(=O)NC(=O)c3cccnc3N3CC(C)CC3(C)C)n2)cc1` (stereo not shown) [Compound 2239, N—[[6-(4-methoxyphenoxy)-2-pyridyl]sulfonyl]-2-(2,2,4-trimethylpyrrolidin-1-yl)pyridine-3-carboxamide], for which the EC30 is below 3000 nM.
On to `CCOc1cccc(-c2ccc(C(=O)NS(=O)(=O)c3ccc[nH]c3=O)c(N3C[C@@H](C)CC3(C)C)n2)c1` [Compound 2235, 6-(3-ethoxyphenyl)-N-[(2-oxo-1H-pyridin-3-yl)sulfonyl]-2-[(4S)-2,2,4-trimethylpyrrolidin-1-yl]pyridine-3-carboxamide], for which the EC30 is below 3000 nM.

The same assay, now with this note: Table 3; compounds of Table 1 as modulators of CFTR activity; protocol not stated.
In the case of `Cc1cc(C)c(Oc2nc(C(F)(F)F)ccc2C(=O)NS(=O)(=O)c2cccc(N)n2)c(C)c1` [Compound 175, N-[(6-amino-2-pyridyl)sulfonyl]-6-(trifluoromethyl)-2-(2,4,6-trimethylphenoxy)pyridine-3-carboxamide], the 30% effect concentration (EC30) entry was “++ (“++” means between 3 uM and 10 uM)”.
The same measure, in the same setting: the result for `Cc1cc(C)c(Oc2nc(-c3ccc(F)cc3)ccc2C(=O)NS(=O)(=O)c2cccc(N)n2)c(C)c1` [Compound 93, N-[(6-amino-2-pyridyl)sulfonyl]-6-(4-fluorophenyl)-2-(2,4,6-trimethylphenoxy)pyridine-3-carboxamide] reads “+++ (“+++” means <3 uM)”.
Turning to `CC(C)(C)c1ccc(C(=O)NS(=O)(=O)c2cccc(N)n2)c(C2=CCCCC2)n1` [Compound 478, N-[(6-amino-2-pyridyl)sulfonyl]-6-tert-butyl-2-(cyclohexen-1-yl)pyridine-3-carboxamide], the EC30 result was “++ (“++” means between 3 uM and 10 uM)”.
`Cc1ccc(-c2nc(C(C)(C)C)ccc2C(=O)NS(=O)(=O)c2ccccn2)cc1` [Compound 407, 6-tert-butyl-2-(p-tolyl)-N-(2-pyridylsulfonyl)pyridine-3-carboxamide]: the 30% effect concentration (EC30) entry is “++ (“++” means between 3 uM and 10 uM)”.
Take `Cc1cc(C)c(Cn2nc(-c3c(C)cccc3C)cc2C(=O)NS(=O)(=O)c2cccc(N)c2)c(C)c1` [Compound 209, N-(3-aminophenyl) sulfonyl-5-(2,6-dimethylphenyl)-2-[(2,4,6-trimethylphenyl)methyl]pyrazole-3-carboxamide]: the EC30 result is listed as “+++ (“+++” means <3 uM)”.
Regarding `Cc1cc(C)c(Oc2nc(-c3ccccc3C(C)(C)C)ccc2C(=O)NS(=O)(=O)c2cccc(N)n2)c(C)c1` [Compound 364, N-[(6-amino-2-pyridyl)sulfonyl]-6-(2-tert-butylphenyl)-2-(2,4,6-trimethylphenoxy)pyridine-3-carboxamide], the 30% effect concentration (EC30) result is on record as “+-F+”.
`CC(C)COc1cc(F)cc(-c2ccc(C(=O)NS(=O)(=O)c3cccc4[nH]ccc34)c(N3CC(C)CC3(C)C)n2)c1` (stereo not shown) [Compound 549, 6-(3-fluoro-5-isobutoxy-phenyl)-N-(1H-indol-4-ylsulfonyl)-2-(2,2,4-trimethylpyrrolidin-1-yl)pyridine-3-carboxamide]: the EC30 result is reported as “+++ (“+++” means <3 uM)”.
For the molecule `CC(C)Oc1ccc(-c2ccc(C(=O)NS(=O)(=O)c3ccn[nH]3)c(N3CCC[C@@H](c4ccccc4)C3)n2)cn1` [Compound 776, 6-(6-isopropoxy-3-pyridyl)-2-[(3S)-3-phenyl-1-piperidyl]-N-(1H-pyrazol-5-ylsulfonyl)pyridine-3-carboxamide], the EC30 result is on record as “+++ (“+++” means <3 uM)”.
On the same count and under the same terms, the result for `Cc1cc(C#N)cc(C)c1Oc1nc(C(C)(C)C)ccc1C(=O)NS(=O)(=O)c1cccc(N)c1` [Compound 111, N-(3-aminophenyl)sulfonyl-6-tert-butyl-2-(4-cyano-2,6-dimethyl-phenoxy)pyridine-3-carboxamide] reads “+++ (“+++” means <3 uM)”.
As to `Cc1cc(C)c(Cn2c(C(=O)NS(=O)(=O)c3ccccc3)cc3cc(C)ccc32)c(C)c1` [Compound 248, N-(benzenesulfonyl)-5-methyl-1-[(2,4,6-trimethylphenyl)methyl]indole-2-carboxamide], the EC30 entry is listed as “+++ (“+++” means <3 uM)”.
`CC(C)COc1cc(F)cc(-c2ccc(C(=O)NS(=O)(=O)c3cccc(N)n3)c(N3CC4(CCC4)C3)n2)c1` [Compound 527, N-[(6-amino-2-pyridyl)sulfonyl]-2-(6-azaspiro[3.3]heptan-6-yl)-6-(3-fluoro-5-isobutoxy-phenyl)pyridine-3-carboxamide]: the EC30 entry is given as “+++ (“+++” means <3 uM)”.
The same measure, in the same setting: the result for `Cn1ccc2cccc(Oc3nc(C(C)(C)C)ccc3C(=O)NS(=O)(=O)c3ccccc3)c21` [Compound 326, N-(benzenesulfonyl)-6-tert-butyl-2-(1-methylindol-7-yl)oxy-pyridine-3-carboxamide] reads “+++ (“+++” means <3 uM)”; that for `Cc1ccc(-c2nc(C(C)(C)C)ccc2C(=O)NS(=O)(=O)c2ccc(C#N)cc2)cc1` [Compound 288, 6-tert-butyl-N-(4-cyanophenyl)sulfonyl-2-(p-tolyl)pyridine-3-carboxamide], “+++ (“+++” means <3 uM)”.
Take `COc1cc2cc(C(=O)NS(=O)(=O)c3ccccc3)n(Cc3c(C)cc(C)cc3C)c2cc1OC` [Compound 198, N-(benzenesulfonyl)-5,6-dimethoxy-1-[(2,4,6-trimethylphenyl)methyl]indole-2-carboxamide]: the 30% effect concentration (EC30) result is on record as “+++ (“+++” means <3 uM)”.
On the same count and under the same terms, the result for `Cc1cc(C)c(Oc2nc(C(C)(C)C)ccc2C(=O)NS(=O)(=O)c2cncc(N)c2)c(C)c1` [Compound 163, N-[(5-amino-3-pyridyl)sulfonyl]-6-tert-butyl-2-(2,4,6-trimethylphenoxy)pyridine-3-carboxamide] reads “+++ (“+++” means <3 uM)”.
Regarding `Cc1cc(C)c(Cn2nc(C(C)(C)C)cc2C(=O)NS(=O)(=O)c2cccc(Cl)c2)c(C)c1` [Compound 472, 5-tert-butyl-N-(3-chlorophenyl)sulfonyl-2-[(2,4,6-trimethylphenyl)methyl]pyrazole-3-carboxamide], the EC30 entry is reported as “+ (“+” means greater than 10 uM)”.
As to `Cc1cc(C)c(Oc2nc(-c3ccc(F)c(F)c3)ccc2C(=O)NS(=O)(=O)c2cccc(N)n2)c(C)c1` [Compound 725, N-[(6-amino-2-pyridyl)sulfonyl]-6-(3,4-difluorophenyl)-2-(2,4,6-trimethylphenoxy)pyridine-3-carboxamide], the 30% effect concentration (EC30) result is “+++ (“+++” means <3 uM)”.

Usually EC30 stands for the concentration needed for an effect of 30%.
